In PubChem BioAssay (NCI) one finds GI50 and TGI data, which are given here for eight molecules.

Structures are written as SMILES. Several values for one entry are separate records, joined by “and”; a condition that tells them apart may be missing. Equal values may be shown once.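 Exposure lasted 48 hours, with cells grown in 96-well plates and compounds tested at five concentrations. GI50: concentration for 50% inhibition of growth. Definition used: TGI = concentration required for complete inhibition of growth.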

Among the test systems are TK-10 renal; HCC-2998 colon; LOX IMVI melanoma; UACC-257 melanoma; OVCAR-3 ovarian; HS 578T breast; KM12 colon; A498 renal; UACC-62 melanoma; MALME-3M melanoma.
Assay in all cases: inhibition of tumour cell growth, NCI panel, 48 h

As to `C#CCNC(=O)CC[C@]1(C)[C@H]2CC[C@@H]3[C@@H]([C@@](C)(O)CCC=C(C)C)CC[C@@]3(C)[C@]2(C)CC[C@H]1C(=C)C`, the GI50 with TK-10 renal was 43.7 µM; with HCC-2998 colon, 45.8 µM; with LOX IMVI melanoma, 9.73 µM; in the assay with UACC-257 melanoma it was 68 µM; with OVCAR-3 ovarian, 31.3 µM; with HS 578T breast, 50.2 µM. Further, the GI50 is 38.5 µM in the assay on KM12 colon, > 100 µM in the assay with A498 renal, 22.5 µM in the assay with UACC-62 melanoma and 16.4 µM with MALME-3M melanoma. In addition, the TGI in the assay on TK-10 renal was > 100 µM; in the assay on HCC-2998 colon, > 100 µM; in the assay on LOX IMVI melanoma it was 27.4 µM; in the assay with UACC-257 melanoma, > 100 µM; in the assay with OVCAR-3 ovarian, 89.9 µM; in the assay on HS 578T breast, > 100 µM. Also, the TGI is > 100 µM in the assay with KM12 colon, > 100 µM in the assay with A498 renal, > 100 µM in the assay with UACC-62 melanoma and 35 µM with MALME-3M melanoma.
Regarding `COC(=O)[C@@]1(C)CC[C@]2(C)CC[C@]3(C)C4=CC=C5C(=CC(=O)C(O)=C5C)[C@]4(C)CC[C@@]3(C)[C@@H]2C1`, the GI50 was 0.185 µM in the assay with TK-10 renal; 0.21 µM with HCC-2998 colon; 0.174 µM in the assay with LOX IMVI melanoma; 0.279 µM in the assay with UACC-257 melanoma; 0.169 µM in the assay on OVCAR-3 ovarian; 0.289 µM in the assay with HS 578T breast. The GI50 was 0.369 µM with KM12 colon, 0.333 µM in the assay with A498 renal, 0.202 µM in the assay with UACC-62 melanoma and 0.232 µM in the assay on MALME-3M melanoma. Further, the TGI in the assay on TK-10 renal is 0.449 µM; in the assay with HCC-2998 colon, 0.474 µM; with LOX IMVI melanoma, 0.325 µM; in the assay with UACC-257 melanoma it was 0.767 µM; in the assay on OVCAR-3 ovarian it was 0.325 µM; in the assay on HS 578T breast it was 1.52 µM. In addition, the TGI with KM12 colon stood at 1.49 µM; in the assay on A498 renal, 0.938 µM; in the assay on UACC-62 melanoma, 0.467 µM; in the assay with MALME-3M melanoma, 0.446 µM.
On to `COc1cc(C2CC(c3cc(C)ccc3C)=NN2c2ccc(S(=O)(=O)NC(=O)NCc3ccccc3)cc2)cc(OC)c1OC` (centres undefined), for which the GI50 is 4.74 µM with TK-10 renal; 2.63 µM with HCC-2998 colon; 3.79 µM in the assay on LOX IMVI melanoma; 3.53 µM in the assay with UACC-257 melanoma; 2.42 µM with OVCAR-3 ovarian; 2.68 µM with HS 578T breast. Also, the GI50 with KM12 colon was 3.44 µM; with A498 renal, 3.09 µM; in the assay with UACC-62 melanoma, 1.98 µM; in the assay with MALME-3M melanoma it was 3.48 µM. Besides, the TGI in the assay on TK-10 renal was 31 µM; with HCC-2998 colon it was 6.47 µM; in the assay on LOX IMVI melanoma it was > 100 µM; with UACC-257 melanoma it was 20.1 µM; with OVCAR-3 ovarian it was 5.4 µM; with HS 578T breast, 7.67 µM. In addition, the TGI was found to be 17.6 µM in the assay on KM12 colon, 9.03 µM in the assay with A498 renal, 4.48 µM in the assay with UACC-62 melanoma and 9.61 µM in the assay on MALME-3M melanoma.
In the case of `O=C1/C(=C/c2ccccc2)CCC/C1=C\c1ccccc1`, the GI50 in the assay with TK-10 renal is 6.12 µM; with HCC-2998 colon it was 2.72 µM; in the assay on LOX IMVI melanoma, 3.83 µM and 1.52 µM; with UACC-257 melanoma it was 6.3 µM and 13.1 µM; with OVCAR-3 ovarian, 6.25 µM and 4.04 µM; in the assay on HS 578T breast it was 43.2 µM. Further, the GI50 was 3.54 µM and 2.11 µM with KM12 colon; 6.34 µM in the assay on UACC-62 melanoma; 6.54 µM and 21 µM in the assay on MALME-3M melanoma. For the same molecule, the TGI was 11.9 µM and 33.2 µM and 40 µM in the assay on TK-10 renal; 25.8 µM and 7.64 µM in the assay on HCC-2998 colon; 8.65 µM and 5.92 µM and 3.64 µM with LOX IMVI melanoma; 11.7 µM and 39.8 µM and 33.3 µM in the assay with UACC-257 melanoma; 11.3 µM and 24 µM and 13 µM in the assay with OVCAR-3 ovarian; 28.1 µM and > 100 µM with HS 578T breast. In addition, the TGI with KM12 colon was 7.81 µM and 5.54 µM and 4.26 µM; in the assay with A498 renal, 29.8 µM and 29.2 µM; with UACC-62 melanoma, 11.5 µM and 28.4 µM and 29.9 µM; in the assay with MALME-3M melanoma it was 11.9 µM and 33.3 µM and 59.7 µM.
`CC[CH2][Sn]([Cl])([Cl])[CH2]CC`: the GI50 was 3.16 µM in the assay on TK-10 renal; 10.1 µM with HCC-2998 colon; 2.8 µM in the assay on LOX IMVI melanoma; 4.59 µM in the assay with UACC-257 melanoma; 12.9 µM in the assay with OVCAR-3 ovarian; 6.13 µM with HS 578T breast. The GI50 is 16 µM in the assay with KM12 colon, 1.54 µM in the assay on A498 renal, 4.19 µM with UACC-62 melanoma and 1.55 µM in the assay on MALME-3M melanoma. In addition, the TGI was 11.1 µM in the assay on TK-10 renal; 22 µM with HCC-2998 colon; 11.4 µM in the assay on LOX IMVI melanoma; 19.2 µM in the assay with UACC-257 melanoma; 26.1 µM in the assay with OVCAR-3 ovarian; 28.4 µM with HS 578T breast. The TGI turned out to be 30.9 µM with KM12 colon, 3.62 µM with A498 renal, 17.5 µM with UACC-62 melanoma and 4.91 µM in the assay with MALME-3M melanoma.
For `CC(=O)OC(C)(C)N=Nc1ccc(Br)cc1`, the TGI with TK-10 renal is > 87.9 µM; in the assay with HCC-2998 colon, > 100 µM; in the assay on LOX IMVI melanoma, 33.7 µM; in the assay on UACC-257 melanoma, 66.2 µM; in the assay on OVCAR-3 ovarian, > 100 µM; in the assay with HS 578T breast, > 100 µM. The TGI with KM12 colon, in the assay with A498 renal, with UACC-62 melanoma and with MALME-3M melanoma was > 100 µM each time.
For the molecule `CCOC(=O)C(=O)N=Nc1nc2c(O)c3ccccc3c(O)c2s1`, the TGI with TK-10 renal stood at 39.6 µM; with HCC-2998 colon, 28.6 µM; in the assay with LOX IMVI melanoma it was 3.88 µM; in the assay with UACC-257 melanoma, 3.75 µM; in the assay on OVCAR-3 ovarian it was 4.07 µM; in the assay on HS 578T breast it was 10.5 µM. The TGI in the assay with KM12 colon amounted to 20.8 µM; with A498 renal it was 38.2 µM; in the assay with UACC-62 melanoma, 11.5 µM; in the assay on MALME-3M melanoma it was 3.48 µM.
Consider `CC[C@@H](C(=O)[C@@H](C)[C@@H](O)[C@H](C)[C@@H]1O[C@@H]([C@@H](CC)C(=O)O)CC[C@@H]1C)[C@H]1OC2(C=C[C@@H](O)[C@]3(CC[C@@](C)([C@H]4CC[C@](O)(CC)[C@H](C)O4)O3)O2)[C@H](C)C[C@@H]1C` (some centres undefined), for which the GI50 in the assay on TK-10 renal is 1.25 µM; with HCC-2998 colon it was 0.105 µM; with LOX IMVI melanoma, 0.505 µM; in the assay on UACC-257 melanoma it was 0.241 µM; in the assay with OVCAR-3 ovarian, 0.101 µM; in the assay on HS 578T breast, 0.311 µM. In addition, the GI50 is 0.766 µM with KM12 colon, 0.0276 µM in the assay with A498 renal, 0.701 µM with UACC-62 melanoma and 0.224 µM in the assay on MALME-3M melanoma. Moreover, the TGI in the assay on TK-10 renal was 20.1 µM; in the assay with HCC-2998 colon, 10.5 µM; with LOX IMVI melanoma, > 19 µM; with UACC-257 melanoma, 5.49 µM; with OVCAR-3 ovarian, 15.1 µM; in the assay on HS 578T breast it was > 50 µM. The TGI in the assay on KM12 colon came to 8.43 µM; in the assay with A498 renal, 0.458 µM; in the assay with UACC-62 melanoma it was 1.55 µM; with MALME-3M melanoma, 0.86 µM.
